The NIST ThermoML archive (doi:10.1016/j.jct.2015.08.014)

Assay: xn = mol fraction of the nth substance listed
Conditions: 298.15 K, 100 kPa, Liquid, Alternating current cell with electrodes

CCCC[N+]1(C)CCCC1.N#CN=C=[N-] [1-butyl-1-methylpyrrolidinium dicyanamide] + O=C1CCCO1
electrical conductivity [S/m]
Conditions	Frequency=0.0025 MHz	Frequency=0.003 MHz	Frequency=0.00347222 MHz	Frequency=0.004 MHz	Frequency=0.00446429 MHz	Frequency=0.005 MHz
x1 = 0.0463	–	1.47	1.47	1.47	1.47	1.47
x1 = 0.0987	–	2.21	2.21	2.21	2.21	2.21
x1 = 0.1449	–	2.51	2.51	2.51	2.51	2.51
x1 = 0.1859	–	2.67	2.67	2.67	2.67	2.67
x1 = 0.2493	–	2.611	2.612	2.612	2.612	2.612
x1 = 0.3029	–	2.54	2.54	2.54	2.54	–
x1 = 0.3845	2.36	2.36	2.36	2.36	2.36	–
x1 = 0.4985	2.08	2.08	2.08	2.08	2.08	–
x1 = 0.6954	1.68	1.68	1.68	1.68	1.68	–
x1 = 0.9013	1.39	1.39	1.39	1.39	1.39	–
x1 = 1	1.317	1.317	1.317	1.317	1.317	–
